Experimental data reported in ChEMBL document CHEMBL6127041, “Dual-target inhibitors based on acetylcholinesterase: Novel agents for Alzheimer's disease” (Eur J Med Chem, 2024).

Tests used:
[1] = biological target: T1, Amine oxidase [flavin-containing] A (Homo sapiens, UniProt P21397); assay: Inhibition of MAO-A (unknown origin)
T1 sequence (P21397 whole entry): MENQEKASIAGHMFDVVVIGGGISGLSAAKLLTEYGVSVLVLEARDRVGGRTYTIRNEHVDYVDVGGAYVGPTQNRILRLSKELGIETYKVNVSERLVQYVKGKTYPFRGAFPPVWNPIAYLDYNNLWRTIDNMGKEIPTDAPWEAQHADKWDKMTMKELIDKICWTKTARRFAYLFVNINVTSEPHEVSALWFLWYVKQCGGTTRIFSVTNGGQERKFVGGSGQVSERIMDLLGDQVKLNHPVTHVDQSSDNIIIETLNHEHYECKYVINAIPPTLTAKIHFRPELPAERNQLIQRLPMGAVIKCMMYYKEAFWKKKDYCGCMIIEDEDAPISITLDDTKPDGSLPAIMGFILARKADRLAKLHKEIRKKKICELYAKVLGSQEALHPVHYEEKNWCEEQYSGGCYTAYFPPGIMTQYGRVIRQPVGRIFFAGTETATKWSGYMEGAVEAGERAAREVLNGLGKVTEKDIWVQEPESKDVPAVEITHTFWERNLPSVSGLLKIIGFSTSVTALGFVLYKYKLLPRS

Acetylcholinesterase [2] = biological target: T2, Acetylcholinesterase (Electrophorus electricus, UniProt O42275); assay: Inhibition of electric eel AChE using acetylthiocholine iodide as substrate preincubated for 5 mins followed by substrate addition by DTNB reagent based Ellman's method
[3] = biological target: T3, Amine oxidase [flavin-containing] B (Homo sapiens, UniProt P27338); assay: Inhibition of MAO-B (unknown origin)
T3 sequence (P27338 whole entry): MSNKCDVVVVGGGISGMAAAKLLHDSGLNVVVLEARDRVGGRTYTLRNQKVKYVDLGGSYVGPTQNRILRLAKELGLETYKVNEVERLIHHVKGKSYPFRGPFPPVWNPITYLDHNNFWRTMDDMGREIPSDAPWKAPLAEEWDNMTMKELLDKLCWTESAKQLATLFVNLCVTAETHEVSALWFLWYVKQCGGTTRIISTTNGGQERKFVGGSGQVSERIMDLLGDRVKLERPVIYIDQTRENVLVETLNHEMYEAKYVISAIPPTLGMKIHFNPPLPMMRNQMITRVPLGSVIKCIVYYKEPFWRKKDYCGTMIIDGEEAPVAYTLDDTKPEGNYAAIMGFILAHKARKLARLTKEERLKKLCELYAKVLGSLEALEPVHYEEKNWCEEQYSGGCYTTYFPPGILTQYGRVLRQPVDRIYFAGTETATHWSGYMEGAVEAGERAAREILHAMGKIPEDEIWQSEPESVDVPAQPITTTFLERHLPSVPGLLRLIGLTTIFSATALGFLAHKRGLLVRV

Acetylcholinesterase [4] = biological target: T4, Acetylcholinesterase (Homo sapiens, UniProt P22303); assay: Inhibition of AChE (unknown origin)
Acetylcholinesterase [5] = biological target: T4, Acetylcholinesterase; assay: Inhibition of human recombinant AChE using acetylthiocholine iodide as substratE incubated for 20 mins by DTNB reagent based Ellman's method
Beta-secretase 1 [6] = biological target: T5, Beta-secretase 1 (Homo sapiens, UniProt P56817); assay: Inhibition of human BACE-1 by FRET assay
Beta-secretase 1 [7] = biological target: T5, Beta-secretase 1; assay: Inhibition of BACE-1 (unknown origin) measured after 2 hrs by FRET assay
Acetylcholinesterase [8] = biological target: T2, Acetylcholinesterase; assay: Inhibition of electric eel AChE using acetylthiocholine iodide as substrate preincubated with compounds for 20 mins followed by substrate addition and measured after 5 mins by Ellman's method
Cholinesterase = Cholinesterase (Homo sapiens, UniProt P06276); assay: Inhibition of BChE (unknown origin) incubated for 10 mins by Ellman's method
Acetylcholinesterase [9] = biological target: T4, Acetylcholinesterase
Description: Inhibition of human AChE by Ellman's method

Acetylcholinesterase [10] = biological target: T4, Acetylcholinesterase; assay: Inhibition of AChE (unknown origin) incubated for 1 hr by Ellman's method
Beta-secretase 1 [11] = biological target: T5, Beta-secretase 1; assay: Inhibition of BACE-1 (unknown origin)
Acetylcholinesterase [12] = biological target: T4, Acetylcholinesterase; assay: Inhibition of AChE (unknown origin) using acetylthiocholine iodide as substrate measured after 15 mins by Ellman's method
Acetylcholinesterase [13] = biological target: T4, Acetylcholinesterase; assay: Inhibition of AChE (unknown origin) by Ellman's method

T4 sequence (P22303 whole entry): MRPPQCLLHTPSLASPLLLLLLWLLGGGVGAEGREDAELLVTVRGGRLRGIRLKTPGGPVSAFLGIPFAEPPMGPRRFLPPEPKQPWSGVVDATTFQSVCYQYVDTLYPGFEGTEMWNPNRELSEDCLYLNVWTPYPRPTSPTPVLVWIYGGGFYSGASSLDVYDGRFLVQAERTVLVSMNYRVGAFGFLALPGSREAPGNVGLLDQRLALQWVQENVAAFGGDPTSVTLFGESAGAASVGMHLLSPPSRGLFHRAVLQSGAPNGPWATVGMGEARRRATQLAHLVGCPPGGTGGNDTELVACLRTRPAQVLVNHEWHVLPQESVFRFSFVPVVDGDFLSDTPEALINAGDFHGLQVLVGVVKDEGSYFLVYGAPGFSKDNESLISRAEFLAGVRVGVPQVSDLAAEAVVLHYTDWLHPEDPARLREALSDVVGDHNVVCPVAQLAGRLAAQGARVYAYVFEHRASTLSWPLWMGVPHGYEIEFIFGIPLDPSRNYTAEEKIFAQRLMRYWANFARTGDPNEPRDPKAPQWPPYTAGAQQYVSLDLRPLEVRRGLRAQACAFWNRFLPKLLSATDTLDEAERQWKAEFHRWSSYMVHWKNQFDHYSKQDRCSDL
Chain of Cholinesterase (P06276 whole entry): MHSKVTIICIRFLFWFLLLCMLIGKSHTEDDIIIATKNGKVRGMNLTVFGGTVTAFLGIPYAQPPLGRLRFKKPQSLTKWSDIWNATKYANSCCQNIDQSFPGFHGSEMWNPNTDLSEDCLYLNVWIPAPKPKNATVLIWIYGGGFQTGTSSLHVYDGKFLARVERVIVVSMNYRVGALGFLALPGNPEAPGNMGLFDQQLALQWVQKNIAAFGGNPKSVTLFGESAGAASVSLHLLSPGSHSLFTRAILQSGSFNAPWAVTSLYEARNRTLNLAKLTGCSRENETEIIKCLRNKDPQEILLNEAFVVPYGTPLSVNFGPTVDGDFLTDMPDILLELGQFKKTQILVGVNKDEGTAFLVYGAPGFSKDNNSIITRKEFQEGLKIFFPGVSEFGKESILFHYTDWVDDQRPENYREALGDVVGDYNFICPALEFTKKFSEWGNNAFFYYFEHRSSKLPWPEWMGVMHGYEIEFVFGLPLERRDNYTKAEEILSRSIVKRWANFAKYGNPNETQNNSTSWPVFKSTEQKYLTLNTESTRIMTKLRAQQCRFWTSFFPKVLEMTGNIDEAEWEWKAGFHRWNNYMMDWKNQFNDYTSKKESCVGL
T5 sequence (P56817 whole entry): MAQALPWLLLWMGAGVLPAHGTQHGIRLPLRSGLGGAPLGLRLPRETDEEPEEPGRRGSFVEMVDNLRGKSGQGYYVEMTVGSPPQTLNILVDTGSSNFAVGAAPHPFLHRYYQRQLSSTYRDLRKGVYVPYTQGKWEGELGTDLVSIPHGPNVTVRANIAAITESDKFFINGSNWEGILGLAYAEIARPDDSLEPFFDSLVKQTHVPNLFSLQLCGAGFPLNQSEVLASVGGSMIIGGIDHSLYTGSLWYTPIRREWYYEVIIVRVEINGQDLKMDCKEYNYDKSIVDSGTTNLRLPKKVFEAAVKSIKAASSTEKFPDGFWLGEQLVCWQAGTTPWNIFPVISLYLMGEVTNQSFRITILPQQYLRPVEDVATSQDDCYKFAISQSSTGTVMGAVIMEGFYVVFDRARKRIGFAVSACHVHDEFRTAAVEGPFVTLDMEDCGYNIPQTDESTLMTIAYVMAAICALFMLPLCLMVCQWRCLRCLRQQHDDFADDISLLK
T2 sequence (O42275 whole entry): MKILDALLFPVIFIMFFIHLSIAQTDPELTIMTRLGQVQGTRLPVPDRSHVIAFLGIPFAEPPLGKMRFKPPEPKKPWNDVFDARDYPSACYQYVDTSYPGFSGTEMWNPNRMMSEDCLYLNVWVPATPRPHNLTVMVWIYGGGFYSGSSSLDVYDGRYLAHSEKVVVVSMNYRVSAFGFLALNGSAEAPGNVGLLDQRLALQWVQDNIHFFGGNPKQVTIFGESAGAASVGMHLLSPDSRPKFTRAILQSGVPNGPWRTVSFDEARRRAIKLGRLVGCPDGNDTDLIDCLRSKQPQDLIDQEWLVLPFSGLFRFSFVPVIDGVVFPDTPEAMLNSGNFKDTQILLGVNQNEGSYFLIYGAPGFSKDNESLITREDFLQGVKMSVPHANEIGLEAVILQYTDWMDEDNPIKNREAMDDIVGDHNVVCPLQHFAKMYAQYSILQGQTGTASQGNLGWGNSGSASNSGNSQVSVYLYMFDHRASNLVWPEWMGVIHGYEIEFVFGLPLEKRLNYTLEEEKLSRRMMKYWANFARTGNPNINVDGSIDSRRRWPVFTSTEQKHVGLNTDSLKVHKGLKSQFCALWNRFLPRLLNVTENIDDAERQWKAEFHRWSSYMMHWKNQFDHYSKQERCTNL

## O=C(/C=C/c1ccc(OCc2ccccc2)cc1)c1ccc2c(c1)OCO2
[1]
  IC50: 8610 nM
Acetylcholinesterase [2]
  IC50: 5400 nM
[3]
  IC50: 1540 nM

## O=C(/C=C/c1ccccc1)c1ccccc1 [CHALCONE]
Acetylcholinesterase [4]
  IC50: 28200 nM

## COc1ccccc1NC(=O)C1CCN(Cc2ccccc2)CC1
Acetylcholinesterase [5]
  IC50: 157 nM
Beta-secretase 1 [6]
  IC50: 277 nM

## COc1ccc2c(c1)C/C(=C/c1ccccc1-c1ccc3ccccc3c1)C2=O
Beta-secretase 1 [6]
  IC50: 101 nM

## COc1ccc2c(c1)C/C(=C/c1ccccc1-c1ccc3nc(N)ccc3c1)C2=O
Beta-secretase 1 [7]
  IC50: 13.1 nM
Acetylcholinesterase [8]
  IC50: 14.7 nM

## COc1ccc(NC(=O)C2CCN(Cc3ccccc3)CC2)cc1
Acetylcholinesterase [5]
  IC50: 165 nM
Beta-secretase 1 [6]
  IC50: 253 nM

## O=C(/C=C/c1ccccc1)c1ccc(N2CCOCC2)cc1
[1]
  IC50: > 40000 nM
Cholinesterase
  IC50: > 40000 nM

## COc1ccc(/C=C2\Oc3cc(OCCN4CCCC4)ccc3C2=O)c(OC)c1OC
[3]
  IC50: 340 nM
Acetylcholinesterase [9]
  IC50: 1560 nM

## CCO/C(C)=N/Oc1ccc(/C=C/C(=O)c2ccc(C)cc2)cc1
[1]
  IC50: 15000 nM
Acetylcholinesterase [2]
  IC50: 850 nM
[3]
  IC50: 30 nM

## CCOc1ccc(C(=O)/C=C/c2ccccc2)cc1
[1]
  IC50: 28500 nM
Acetylcholinesterase [2]
  IC50: 3230 nM
[3]
  IC50: 400 nM

## COc1ccc(/C=N/NC(=O)c2ccc(Cl)nc2)cc1OC
Acetylcholinesterase [10]
  IC50: 30 nM
Beta-secretase 1 [11]
  IC50: 400 nM

## Nc1ccccc1C(=O)/C=C/c1cnc2c(c1)OCO2
Acetylcholinesterase [12]
  IC50: 4160 nM

## COc1ccc(/C=C/C(=N/Oc2ccc(/C=C/C(=O)c3ccc(F)cc3)cc2)c2ccc(OC)cc2)cc1
[3]
  IC50: 20 nM

## COc1ccc(NC(=O)C2CCN(Cc3ccccc3)CC2)cc1OC
Acetylcholinesterase [5]
  IC50: 145 nM
Beta-secretase 1 [6]
  IC50: 243 nM

## CCOc1cc(/C=N/NC(=O)c2ccc(Cl)nc2)ccc1O
Acetylcholinesterase [10]
  IC50: 30 nM
Beta-secretase 1 [11]
  IC50: 700 nM

## O=C1[C@@H]2Cc3c([nH]c4ccccc34)[C@@H](c3ccc4c(c3)OCO4)N2C(=O)CN1CCC1CCN(Cc2ccccc2)CC1
Acetylcholinesterase [13]
  IC50: 30 nM

## CN(C)c1ccc(/C=C/C(=O)c2ccc(N3CCOCC3)cc2)cc1
[1]
  IC50: > 40000 nM
Cholinesterase
  IC50: > 40000 nM

## CCO/C(C)=N/Oc1ccc(/C=C/C(=O)c2ccc(F)cc2)cc1
[1]
  IC50: 17400 nM
Acetylcholinesterase [2]
  IC50: 670 nM
[3]
  IC50: 20 nM

## CCN(CCCCOc1ccc(C(=O)/C=C/c2ccc(N(C)C)cc2)c(O)c1)Cc1ccccc1N(C)C
Acetylcholinesterase [2]
  IC50: 130 nM
Cholinesterase
  IC50: 130 nM

## COC(=O)c1ccc(/C=N/NC(=O)c2ccc(Cl)nc2)cc1
Acetylcholinesterase [10]
  IC50: 100 nM
Beta-secretase 1 [11]
  IC50: 2800 nM

## COc1cc(/C=N/NC(=O)c2ccc(Cl)nc2)ccc1O
Acetylcholinesterase [10]
  IC50: 30 nM
Beta-secretase 1 [11]
  IC50: 600 nM

## Cc1ccc(/C=C/C(=O)c2ccccc2N)cn1
Acetylcholinesterase [12]
  IC50: 2920 nM

## CN1CCN(c2ccc(C(=O)/C=C/c3cc(Br)ccc3F)cc2)CC1
Cholinesterase
  IC50: 9440 nM

## O=C(N/N=C/c1ccc([N+](=O)[O-])cc1)c1ccc(Cl)nc1
Acetylcholinesterase [10]
  IC50: 20 nM
Beta-secretase 1 [11]
  IC50: 200 nM

## O=C(/C=C/c1ccc(Cl)cc1)c1ccc(Cl)s1
[1]
  IC50: 1600 nM
Acetylcholinesterase [2]
  IC50: 14800 nM
Cholinesterase
  IC50: 19600 nM
[3]
  IC50: 790 nM

## CSc1ccc(/C=C/C(=O)c2ccccc2N)cn1
Acetylcholinesterase [12]
  IC50: 1220 nM

## O=C(/C=C/c1ccc(Br)cc1)c1ccc(Cl)s1
[1]
  IC50: 1360 nM
Acetylcholinesterase [2]
  IC50: 16200 nM
Cholinesterase
  IC50: 19300 nM
[3]
  IC50: 700 nM

## Cn1c(NCCCCCCCNc2c3c(nc4cc(Cl)ccc24)CCCC3)nc(-c2ccncc2F)cc1=O
Acetylcholinesterase [13]
  IC50: 51.1 nM

## O=C(CN1CCC(Cc2ccccc2)CC1)c1ccc2ccccc2c1
Acetylcholinesterase [9]
  IC50: 9130 nM

## COc1ccc(-c2ccccc2/C=C2/Cc3cc(OC)ccc3C2=O)cc1
Beta-secretase 1 [7]
  IC50: 99.4 nM
Acetylcholinesterase [8]
  IC50: 21.2 nM

## COc1ccc2c3c1O[C@H]1C[C@@H](O)C=C[C@@]31CCN(CCCCCCNC13CC4CC(C)(CC(C)(C4)C1)C3)C2 [MEMAGAL]
Acetylcholinesterase [13]
  IC50: 1.16 nM

## COc1ccc([C@@H]2c3[nH]c4ccccc4c3C[C@H]3C(=O)N(CCC4CCN(Cc5ccccc5)CC4)CC(=O)N23)cc1
Acetylcholinesterase [13]
  IC50: 10 nM

## O=C(/C=C/c1ccc(F)cc1)c1ccc(Br)s1
[1]
  IC50: 4060 nM
Acetylcholinesterase [2]
  IC50: 18200 nM
Cholinesterase
  IC50: 16300 nM
[3]
  IC50: 1710 nM

## COc1ccc2c(c1)C/C(=C/c1ccccc1-c1ccccc1)C2=O
Beta-secretase 1 [7]
  IC50: 125 nM
Acetylcholinesterase [8]
  IC50: 29.8 nM

## CN(Cc1ccccc1)Cc1ccc(/C=C2/Cc3ccc(OCCCCCN4CCN(C(c5ccc(F)cc5)c5ccc(F)cc5)CC4)cc3C2=O)cc1
Beta-secretase 1 [7]
  IC50: 341 nM
Acetylcholinesterase [8]
  IC50: 44.1 nM
